The values that follow come from patent US20150175545A1, “Preparation Method of Fluoro-Substituted Deuterated Diphenylurea” (SUZHOU ZELGEN BIOPHARMACEUTICAL CO., LTD, priority 2012, published 2015).

“And” between values parts separate entries of the source, which are not always exact repeats. Equal values may be shown once. Read-outs that look alike come from different tables or passages of the source.

A short description of data set [1]: Pharmacokinetic evaluation of CM4309.TsOH, CM4309.HCl and CM4309.H2O in SD rats. It counts as in vivo. The following applies: for AUCINF_obs / AUClast / Cmax / HL_Lambda_z / MRTINF_obs / Tmax / AUC(0-t) / AUC(0-inf) / MRT inf: 3 mg/kg (calculated by CM4309) intragastric, suspension in 0.5% CMC, CM4309 in plasma; for AUClast (Area Under Curve, Plasma Exposure) relative to CM4309.H2O / Cmax relative to CM4309.H2O: SD rats, 3 mg/kg intragastric, ratio to CM4309.H2O; for AUC(0-inf): read-out: AUCINF_obs; for MRT inf: read-out: MRTINF_obs. The procedure: Twelve male SD rats, weighing about 170 g, were randomly separated into […] and four rats in each group, and fasted overnight. The rats were administrated intragastric ally at a dose of 3 mg/kg (in a concentration of 1 mg/mL calculated by CM4309, and suspended in 0.5% CMC in purified water) of CM4309.TsOH, CM4309.HCl or CM4309.H2O. After administration, blood samples were collected at 0.25, 0.5, 1, 2, 4, 6, 8, 12, 24, 36 and 48 h. The blood samples were centrifuged for 5 minutes at 5000 rpm to separate the plasma. The concentration of CM4309 in plasma was measured by LC/MS/MS to compare the PK difference between CM4309 salts and CM4309 (see Table 1).

A short description of data set [2]: Pharmacokinetic evaluation of CM4309.TsOH and CM4309.H2O in Beagle dogs. To be noted: for AUClast / Cmax / Tmax / AUC(0-t): 2.5 mg/kg (calculated by CM4309) oral in capsule, 2×2 crossover, CM4309 in plasma. It counts as in vivo. The procedure: Four female Beagle dogs, 7-9 months old, weighing about 8 kg, were randomly separated into two groups and two dogs in each group, and fasted overnight. The dogs were administrated orally at a dose of 2.5 mg/kg (calculated by CM4309) of CM4309.TsOH or CM4309.H2O in capsule with 2×2 crossover design. Blood samples were collected before administration and at 0.25, 0.5, 1, 2, 4, 6, 8, 12, 24, 36 and 48 h after administration. The blood samples were centrifuged for 10 minutes at 3500 rpm to separate the plasma. The concentration of CM4309 in plasma was measured by LC/MS/MS to compare the PK difference between CM4309 salts and CM4309 (see Table 2).

Setting [3] is: individual rat, hydrochloride, 3 mg/kg.
The mark [4] stands for this setting: male, SD, rat, plasma, po, 3 mg/kg, Mean of 4 rats.
The mark [5] stands for this setting: male, SD, rat, plasma, po, 3 mg/kg, Mean of 4 rats, read-out: Cmax.
The mark [6] stands for this setting: male, SD, rat, plasma, po, 3 mg/kg, Mean of 4 rats, read-out: Tmax.
[7] abbreviates: male, SD, rat, plasma, po, 3 mg/kg, individual rat.
[8] abbreviates: male, SD, rat, plasma, po, 3 mg/kg, individual rat, read-out: Tmax.
[9] abbreviates: individual rat, p-toluenesulfonate, 3 mg/kg.
[10] abbreviates: Beagle dogs, 2.5 mg/kg oral in capsule, ratio to CM4309.H2O.
The mark [11] stands for this setting: individual dog, p-toluenesulfonate, 2.5 mg/kg.

On to `[2H]C([2H])([2H])NC(=O)c1cc(Oc2ccc(NC(=O)Nc3ccc(Cl)c(C(F)(F)F)c3)c(F)c2)ccn1` [CM4309.H2O], for which, in data set [1] (Mean of 4 rats), the AUCINF_obs is 664 ng·h/mL, the AUClast was 643 ng·h/mL, the Cmax is 45.2 ng/mL and the HL_Lambda_z was 7.62 h. In data set [1] (Mean of 4 rats), the MRTINF_obs was 13.55 h and the Tmax is given as 6.5 h. Further, in data set [1] (individual rat, 3 mg/kg), the AUCINF_obs is 701 ng·h/mL and 827 ng·h/mL and 657 ng·h/mL and 470 ng·h/mL; the AUClast was 675 ng·h/mL and 806 ng·h/mL and 635 ng·h/mL and 459 ng·h/mL; the Cmax was 52.6 ng/mL and 53.3 ng/mL and 42.9 ng/mL and 31.8 ng/mL; the HL_Lambda_z was 8.73 h and 9.26 h and 6.41 h and 6.08 h. For the same molecule, in data set [1] (individual rat, 3 mg/kg), the MRTINF_obs was 14.87 h and 14.06 h and 13 h and 12.25 h; the Tmax is 6 h and 4 h and 8 h. Further, in data set [2] (Mean of 4 dogs), the AUClast is 404 ng·h/mL, the Cmax was 28 ng/mL and the Tmax is 20 h. Moreover, in data set [2] (individual dog, 2.5 mg/kg), the AUClast was 319 ng·h/mL and 829 ng·h/mL and 243 ng·h/mL and 224 ng·h/mL; the Cmax was 34.6 ng/mL and 50 ng/mL and 11.1 ng/mL and 16.4 ng/mL; the Tmax is 24 h and 8 h.

With `Cl.[2H]C([2H])([2H])NC(=O)c1cc(Oc2ccc(NC(=O)Nc3ccc(Cl)c(C(F)(F)F)c3)c(F)c2)ccn1` [CM4309.HCl, 4-(4-(3-(4-chloro-3-(trifluoromethyl)phenyl]ureido)-3-fluorophenoxy)-N-(methyl-d3)picolinamide hydrochloride], in data set [1] (Mean of 4 rats), the HL_Lambda_z is given as 8.25 h. For the same molecule, in data set [1], the “AUClast (Area Under Curve, Plasma Exposure) relative to CM4309.H2O” value is recorded as 8.7 folds and the “Cmax relative to CM4309.H2O” value is given as 8.4 folds. In data set [1] (setting [3]), the AUCINF_obs is 6634 ng·h/mL and 7151 ng·h/mL and 4379 ng·h/mL; the AUClast is 6514 ng·h/mL and 7021 ng·h/mL and 4258 ng·h/mL; the Cmax was 457 ng/mL and 460 ng/mL and 281 ng/mL; the HL_Lambda_z is 8.17 h and 7.77 h and 8.32 h and 8.74 h. For the same molecule, in data set [1] (setting [3]), the MRTINF_obs was 12.93 h and 12.58 h and 15.62 h; the Tmax is 8 h. The Tmax in data set [1] (male, SD, in vivo, po, individual rat, read-out: Tmax) was 4 h. Besides, in data set [1] (setting [4]), the AUC(0-t) is 5570 ng·h/mL, the AUC(0-inf) is 5690 ng·h/mL and the MRT inf was 13.8 h. Further, in data set [1] (setting [5]), the Cmax is 379 ng/mL. Also, the Tmax in data set [1] (setting [6]) is 5.5 h. Moreover, in data set [1] (setting [7]), the exposure AUC(0-t) is 4490 ng·h/mL, the AUC(0-inf) is 4610 ng·h/mL and the MRT inf is 13.9 h. Further, the Cmax in data set [1] (male, SD, rat, plasma, po, 3 mg/kg, individual rat, read-out: Cmax) was 316 ng/mL. Moreover, in data set [1] (setting [8]), the Tmax is 6 h.

Consider `Cc1ccc(S(=O)(=O)O)cc1.[2H]C([2H])([2H])NC(=O)c1cc(Oc2ccc(NC(=O)Nc3ccc(Cl)c(C(F)(F)F)c3)c(F)c2)ccn1` [CM4309.TsOH, 4-(4-(3-(4-chloro-3-(trifluoromethyl)phenyl]ureido)-3-fluorophenoxy)-N-(methyl-d3)picolinamide p-toluenesulfonate], for which the HL_Lambda_z is 7.91 h in data set [1] (Mean of 4 rats); 8.55 h and 7.37 h and 7.48 h and 8.25 h in data set [1] (setting [9]). Besides, the “AUClast (Area Under Curve, Plasma Exposure) relative to CM4309.H2O” value in data set [1] is listed as 11.2 folds. Also, the “Cmax relative to CM4309.H2O” value is given as 10.7 folds in data set [1] and 26 folds in data set [2] (setting [10]). Also, in data set [1] (setting [9]), the AUCINF_obs was 5631 ng·h/mL and 7380 ng·h/mL and 10651 ng·h/mL. Besides, the AUClast in data set [1] (setting [9]) is 5542 ng·h/mL and 7237 ng·h/mL and 10406 ng·h/mL; in data set [2] (setting [11]), 5362 ng·h/mL and 5045 ng·h/mL and 3827 ng·h/mL. Besides, the highest concentration (Cmax) in data set [1] (setting [9]) is 312 ng/mL and 402 ng/mL and 518 ng/mL and 696 ng/mL; in data set [1] (setting [5]), 482 ng/mL; in data set [2] (female, Beagle, dog, plasma, po, 2.5 mg/kg, Mean of 4 dogs, read-out: Cmax), 728 ng/mL; in data set [2] (setting [11]), 996 ng/mL and 437 ng/mL and 483 ng/mL. Also, in data set [1] (setting [9]), the MRTINF_obs is 12.05 h and 12.72 h and 13.6 h. Further, the Tmax was 4 h in data set [1] (setting [9]); 5.5 h in data set [1] (setting [6]); 6 h in data set [1] (setting [8]); 2 h in data set [2] (female, Beagle, individual dog, read-out: Tmax). Further, the AUC(0-t) is 7180 ng·h/mL in data set [1] (setting [4]); 5540 ng·h/mL in data set [1] (setting [7]); 4870 ng·h/mL in data set [2] (female, Beagle, dog, plasma, po, 2.5 mg/kg, Mean of 4 dogs); 5240 ng·h/mL in data set [2] (female, Beagle, dog, plasma, po, 2.5 mg/kg, individual dog). Also, the AUC(0-inf) in data set [1] (setting [4]) was 7340 ng·h/mL; in data set [1] (setting [7]) it was 5700 ng·h/mL. Besides, the MRT inf is 13.3 h in data set [1] (setting [4]) and 14.8 h in data set [1] (setting [7]). Further, the “AUClast relative to CM4309.H2O” value in data set [2] (setting [10]) stood at 12.1 folds.

By Cmax is commonly meant the highest concentration seen after dosing. One may read the Tmax as the time at which the peak concentration occurs. For orientation: AUC(0-t) means the area under the concentration-time curve up to a stated or last time point.
